One may read the IC50 as the midpoint of a concentration-inhibition curve. The inhibition is the relative decrease from the control value, in per cent.

Where two headings read alike, the source gives them in different places.

This is an account of results in US8633245B2, “PAI-1 inhibitor” (Institute of Medicinal Molecular Design, Inc., priority 2008, dated 2014).

The target in this experiment is T1, recombinant human PAI-1 (Homo sapiens, UniProt P05121).
T1 construct: purchased Molecular Innovations, Inc
T1 sequence (P05121 24-402): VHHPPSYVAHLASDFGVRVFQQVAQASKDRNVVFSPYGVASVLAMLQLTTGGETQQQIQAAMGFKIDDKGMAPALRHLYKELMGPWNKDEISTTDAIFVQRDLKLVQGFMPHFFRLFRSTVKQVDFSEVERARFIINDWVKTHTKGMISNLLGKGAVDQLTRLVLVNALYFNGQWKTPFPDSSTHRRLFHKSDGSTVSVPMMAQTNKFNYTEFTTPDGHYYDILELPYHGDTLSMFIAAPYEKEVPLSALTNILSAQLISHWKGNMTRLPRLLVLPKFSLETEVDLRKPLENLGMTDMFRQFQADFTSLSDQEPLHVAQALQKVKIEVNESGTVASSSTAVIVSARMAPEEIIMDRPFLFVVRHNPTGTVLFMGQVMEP
Nature of the experiment: Test Example 2: human PAI-1 inhibitory activity (tPA fluorogenic substrate, pH 7.4 HEPES buffer). The format is biochemical. The settings on record: for inhibition at 3 µM: read-out: Inhibition Rate of PAI-1 Activity (%). The protocol:
0.1 M HEPES, 0.1 M NaCl. 1 mM EDTA. 0.1% Polyethylene glycol 8,000 (Hampton Research Corporation),
2 mM Dimethyldecylphoshine oxide [Apo-10] (Fluka Corporation)

Setting [1] is: human PAI-1, calculated from the inhibition rates.
Setting [2] is: human PAI-1, compound concentration 0.1 μM.
Where [3] appears, read: human PAI-1, compound concentration 0.3 μM.
The mark [4] stands for this setting: human PAI-1, compound concentration 1 μM.
The mark [5] stands for this setting: human PAI-1, compound concentration 3 μM.

In the case of `CC(C)(Oc1c(Oc2ccc(C(C)(C)C)cc2)cccc1-c1ccc(OC(F)(F)F)cc1)C(=O)O` [Compound 251], the IC50 under setting [1] is 1350 nM. On to `CCCCCOc1cc(-c2ccc(OC(F)(F)F)cc2)cc(OCc2ccc(C(C)(C)C)cc2)c1OCC(=O)O` [Compound 301], for which the IC50 under setting [1] is 470 nM. For the molecule `CC(C)(C)c1ccc(Oc2ccc(-c3ccc(OC(F)(F)F)cc3)cc2OCC(=O)O)cc1` [Compound 302], the IC50 under setting [1] was 1700 nM. Still for that read-out and setting: for `CCCCC(Oc1cc(-c2ccc(OC(F)(F)F)cc2)ccc1Oc1ccc(C(C)(C)C)cc1)C(=O)O` (stereo not shown) [Compound 303] the value was 540 nM; for `CC(C)(C)c1ccc(COc2cc(-c3ccc(OC(F)(F)F)cc3)ccc2OCC(=O)O)cc1` [Compound 304], 1230 nM. In the case of `CCCCC(Oc1ccc(-c2ccc(OC(F)(F)F)cc2)cc1Oc1ccc(C(C)(C)C)cc1)C(=O)O` (stereo not shown) [Compound 305], the IC50 under setting [1] is 940 nM.

Consider `CCCCC(Oc1cc(-c2ccc(OC(F)(F)F)cc2)ccc1OCCCCc1ccccc1)C(=O)O` (stereo not shown) [Compound 306], for which the IC50 under setting [1] was 880 nM. Take `CCCCC(Oc1cc(-c2ccc(OC(F)(F)F)cc2)ccc1Oc1ccccc1)C(=O)O` (stereo not shown) [Compound 307]: the IC50 under setting [1] is 1530 nM. Still for that read-out and setting: for `CCCCC(Oc1cc(Oc2ccc(OC(F)(F)F)cc2)ccc1OCc1ccc(C(C)(C)C)cc1)C(=O)O` (stereo not shown) [Compound 308] the value was 670 nM; for `CCCCC(Oc1cc(Oc2ccc(OC(F)(F)F)cc2)ccc1OCCCCc1ccccc1)C(=O)O` (stereo not shown) [Compound 309], 660 nM. Turning to `CCCCC(Oc1ccc(-c2ccc(OC(F)(F)F)cc2)cc1OCc1ccc(C(C)(C)C)cc1)C(=O)O` (stereo not shown) [Compound 310], under setting [1], the IC50 was 710 nM. For the molecule `CCCCC(Oc1ccc(-c2ccc(OC(F)(F)F)cc2)cc1OCCCCc1ccccc1)C(=O)O` (stereo not shown) [Compound 311], the IC50 under setting [1] was 580 nM. The same measure, in the same setting: in the case of `CCCCC(Oc1cc(Oc2ccc(OC(F)(F)F)cc2)ccc1Oc1ccc(C(C)(C)C)cc1)C(=O)O` (stereo not shown) [Compound 312] it was 530 nM; in that of `CCCCC(Oc1cc(-c2ccc(OC(F)(F)F)cc2)ccc1OCc1ccc(C(C)(C)C)cc1)C(=O)O` (stereo not shown) [Compound 313], 980 nM. With `CC(C)(C)c1ccc(Oc2ccc(-c3cccc(C(F)(F)F)c3)cc2OCC(=O)O)cc1` [Compound 314], under setting [1], the IC50 is 1860 nM.

Regarding `CC(C)(C)c1ccc(Oc2cc(-c3cccc(C(F)(F)F)c3)ccc2OCC(=O)O)cc1` [Compound 315], the inhibition at 3 µM is more than 99%. Moreover, under setting [1], the IC50 is 850 nM.

For `Cc1cccc(-c2ccc(Oc3ccc(C(C)(C)C)cc3)c(OCC(=O)O)c2)c1` [Compound 316], the IC50 under setting [1] was 1780 nM. In the case of `CCCCC(Oc1cc(-c2cccc(C)c2)ccc1Oc1ccc(C(C)(C)C)cc1)C(=O)O` (stereo not shown) [Compound 317], the IC50 under setting [1] was 650 nM. For `CCCCC(Oc1cc(-c2cccc(C(F)(F)F)c2)ccc1Oc1ccc(C(C)(C)C)cc1)C(=O)O` (stereo not shown) [Compound 318], the IC50 under setting [1] was 580 nM. For `Cc1cccc(-c2ccc(OCC(=O)O)c(Oc3ccc(C(C)(C)C)cc3)c2)c1` [Compound 319], under setting [1], the IC50 was 2100 nM. As to `CCCCC(Oc1ccc(-c2cccc(C(F)(F)F)c2)cc1Oc1ccc(C(C)(C)C)cc1)C(=O)O` (stereo not shown) [Compound 320], the IC50 under setting [1] is 740 nM.

With `CCCCC(Oc1ccc(-c2cccc(C)c2)cc1Oc1ccc(C(C)(C)C)cc1)C(=O)O` (stereo not shown) [Compound 321], the IC50 under setting [1] was 600 nM. Take `CCCCCCC(Oc1cc(-c2ccc(OC(F)(F)F)cc2)ccc1Oc1ccccc1)C(=O)O` (stereo not shown) [Compound 322]: the IC50 under setting [1] was 740 nM. Take `CCCCCCC(Oc1cc(-c2ccc(OC(F)(F)F)cc2)ccc1Oc1ccc(C(C)(C)C)cc1)C(=O)O` (stereo not shown) [Compound 323]: the IC50 under setting [1] is 490 nM. With `CCCCC(Oc1cc(-c2ccc(OC(F)(F)F)cc2)ccc1OCCCCc1ccc(F)cc1)C(=O)O` (stereo not shown) [Compound 324], the half-maximal inhibitory concentration (IC50) under setting [1] is 830 nM.

Regarding `CCCCC(Oc1cc(-c2ccc(OC(F)(F)F)cc2)ccc1OCCCCc1ccc(Cl)cc1)C(=O)O` (stereo not shown) [Compound 325], under setting [1], the IC50 is 580 nM. As to `CCCCCCC(Oc1cc(-c2ccc(OC(F)(F)F)cc2)ccc1Oc1ccc(OC(F)(F)F)cc1)C(=O)O` (stereo not shown) [Compound 326], the IC50 under setting [1] was 330 nM. The same measure, in the same setting: in the case of `CCCCCCC(Oc1cc(-c2ccc(OC(F)(F)F)cc2)ccc1Oc1ccc(C(F)(F)F)cc1)C(=O)O` (stereo not shown) [Compound 327] it was 420 nM.

As to `CC(C)(C)c1ccc(Oc2ccc(-c3ccc(OC(F)(F)F)cc3)cc2OCC(=O)O)cc1` [Compound 328], the IC50 under setting [1] was 1460 nM. Besides, the “Inhibition Rate of PAI-1 Activity (%)” value reads like this: under setting [2], 0%; under setting [3], 14%; under setting [4], 30%; under setting [5], more than 99%. Consider `CC(C)(C)c1ccc(Oc2ccc(-c3cccc(OC(F)(F)F)c3)cc2OCC(=O)O)cc1` [Compound 329], for which, under setting [1], the IC50 was 1720 nM. Still for that read-out and setting: for `CC(C)(C)c1ccc(Oc2cc(-c3ccc(C(F)(F)F)cc3)ccc2OCC(=O)O)cc1` [Compound 330] the value was 1030 nM; for `CC(C)(C)c1ccc(Oc2cc(-c3cccc(OC(F)(F)F)c3)ccc2OCC(=O)O)cc1` [Compound 331], 790 nM. As to `CC(C)(C)c1ccc(Oc2cc(-c3cccc(C(F)(F)F)c3)ccc2CCC(=O)O)cc1` [Compound 332], the inhibition at 3 µM is more than 99%. For the same molecule, the IC50 under setting [1] is 1470 nM. With `CC(C)c1ccc(Oc2cc(-c3ccc(OC(F)(F)F)cc3)ccc2OCC(=O)O)cc1` [Compound 333], the IC50 under setting [1] is 1720 nM. The same measure, in the same setting: for `CC(C)(C)c1ccc(Oc2cc(-c3ccc(OC(F)(F)F)cc3)ccc2CC(=O)O)cc1` [Compound 334] the value was 1910 nM. Take `CC(C)(C)c1cccc(Oc2cc(-c3ccc(OC(F)(F)F)cc3)ccc2/C=C/C(=O)O)c1` [Compound 335]: the inhibition at 3 µM is more than 99%. Also, under setting [1], the IC50 is 740 nM. `CC(C)(C)c1cccc(Oc2cc(-c3ccc(OC(F)(F)F)cc3)ccc2CCC(=O)O)c1` [Compound 336]: the inhibition at 3 µM is more than 99%. Besides, under setting [1], the IC50 was 1080 nM.

Consider `O=C(O)COc1ccc(-c2ccc(OC(F)(F)F)cc2)cc1OCCCCc1ccccc1` [Compound 337], for which the IC50 under setting [1] is 2020 nM. For the molecule `CC(C)(C)OCCOc1ccc(-c2ccc(OC(F)(F)F)cc2)cc1N(CCCCc1ccccc1)C(=O)C(=O)O` [Compound 351], under setting [1], the IC50 was 1950 nM.

On to `CCCCCCCOc1ccc(-c2ccc(OC(F)(F)F)cc2)cc1N(CCCCc1ccccc1)C(=O)C(=O)O` [Compound 352], for which the IC50 under setting [1] is 740 nM. On to `CCCCCCCCOc1ccc(-c2ccc(OC(F)(F)F)cc2)cc1N(CCCCc1ccccc1)C(=O)C(=O)O` [Compound 353], for which, under setting [1], the IC50 was 510 nM.

In the case of `O=C(O)C(=O)N(CCCCc1ccccc1)c1cc(-c2ccc(OC(F)(F)F)cc2)ccc1OCCCCc1ccccc1` [Compound 354], the half-maximal inhibitory concentration (IC50) under setting [1] is 560 nM. For `O=C(O)C(=O)N(CCCCc1ccccc1)c1cc(-c2ccc(OC(F)(F)F)cc2)ccc1OCCCC1CCCC1` [Compound 355], the IC50 under setting [1] is 640 nM. As to `CCCCCOc1ccc(-c2ccc(OC(F)(F)F)cc2)cc1N(CCCOc1ccccc1)C(=O)C(=O)O` [Compound 356], the inhibition at 3 µM is more than 99%. In addition, the IC50 under setting [1] was 930 nM. `CCCCCOc1ccc(-c2ccc(OC(F)(F)F)cc2)cc1N(CCCSc1ccccc1)C(=O)C(=O)O` [Compound 357]: the inhibition at 3 µM is more than 99%. For the same molecule, the IC50 under setting [1] is 770 nM. For the molecule `CCCCCN(C(=O)C(=O)O)c1cc(-c2ccc(OC(F)(F)F)cc2)ccc1OCCCCc1ccccc1` [Compound 358], the half-maximal inhibitory concentration (IC50) under setting [1] was 900 nM. Regarding `CCCCCOc1ccc(-c2ccc(F)cc2)cc1N(CCCCc1ccccc1)C(=O)C(=O)O` [Compound 359], the IC50 was 1640 nM. With `CCCCCOc1ccc(-c2ccccc2)cc1N(CCCCc1ccccc1)C(=O)C(=O)O` [Compound 360], the IC50 was found to be 1590 nM. As for `CCCCCOc1ccc(-c2ccc(Cl)cc2)cc1N(CCCCc1ccccc1)C(=O)C(=O)O` [Compound 361], the IC50 is 830 nM. As to `CCCCCOc1cc(Oc2ccc(OC(F)(F)F)cc2)ccc1N(CCCCc1ccccc1)C(=O)C(=O)O` [Compound 362], the half-maximal inhibitory concentration (IC50) was 840 nM and the inhibition at 3 µM is more than 99%. For `CCCCCOc1ccc(Oc2ccc(OC(F)(F)F)cc2)cc1N(CCCCc1ccccc1)C(=O)C(=O)O` [Compound 363], the IC50 amounted to 830 nM and the inhibition at 3 µM was more than 99%. Regarding `CCCCCCCCCOc1ccc(-c2ccc(OC(F)(F)F)cc2)cc1N(CCCCc1ccccc1)C(=O)C(=O)O` [Compound 364], the IC50 stood at 110 nM.

As to `CCCCCCCCCCOc1ccc(-c2ccc(OC(F)(F)F)cc2)cc1N(CCCCc1ccccc1)C(=O)C(=O)O` [Compound 365], the IC50 was 110 nM. On the same count and under the same terms, for `CCCCCOc1ccc(-c2ccc(OC(F)(F)F)cc2)cc1N(CCCCC)C(=O)C(=O)O` [Compound 366] the value was 1060 nM.

Consider `CCCCCOc1cc(-c2ccc(OC(F)(F)F)cc2)ccc1N(CCCCc1ccccc1)C(=O)C(=O)O` [Compound 367], for which the IC50 was 900 nM.

Consider `O=C(O)C(=O)N(CCCCc1ccccc1)c1cc(-c2ccc(OC(F)(F)F)cc2)ccc1OC1CCCCC1` [Compound 368], for which the IC50 was 450 nM. As for `CCC(CC)Oc1ccc(-c2ccc(OC(F)(F)F)cc2)cc1N(CCCCc1ccccc1)C(=O)C(=O)O` [Compound 369], the IC50 is 690 nM.

Take `O=C(O)C(=O)N(CCCCc1ccccc1)c1cc(-c2ccc(OC(F)(F)F)cc2)ccc1N1CCCCC1` [Compound 370]: the IC50 amounted to 940 nM. Take `CCCCCCCOc1ccc(-c2ccc(OC(F)(F)F)cc2)cc1N(CCCCc1ccccc1)C(=O)C(=O)O` [Compound 371]: the IC50 (concentration that inhibits 50% of the human PAI-1 activity, calculated from Test Example 2 inhibition rates) is 690 nM. Further, the “Inhibition Rate of PAI-1 Activity (%)” value under setting [2] was 10%, the “Inhibition Rate of PAI-1 Activity (%)” value under setting [3] was 17%, the “Inhibition Rate of PAI-1 Activity (%)” value under setting [4] is 93% and the “Inhibition Rate of PAI-1 Activity (%)” value under setting [5] was found to be 91%. As for `CCCCCOc1cc(-c2ccc(OC(F)(F)F)cc2)cc(N(CCCCc2ccccc2)C(=O)C(=O)O)c1OCCCCC` [Compound 372], the IC50 was found to be 460 nM.
